Measurements: ChEMBL document CHEMBL1147281, “Antimicrobial and cytotoxic activity of rottlerin-type compounds from Hypericum drummondii” (1989)
In brackets after ≈: the same amount, converted by molar mass.

Experiments:
Assay type in all cases: functional
[1] = system: Mycolicibacterium smegmatis; assay: Antimicrobial activity against Mycobacterium smegmatis ATCC 607 after 48 hrs by twofold serial dilution method; settings: ATCC 607, 48 h
[2] = system: KB; assay: Cytotoxicity against human KB cells after 72 hrs; settings: read-out: ED50 (the source's name)
[3] = Cytotoxicity against human colon cancer cells after 72 hrs; settings: Cancer cell lines, read-out: ED50 (the source's name)
[4] = system: P388; assay: Cytotoxicity against mouse P388 cells after 48 hrs; settings: P388, 48 h, read-out: ED50 (the source's name)
[5] = Cytotoxicity against human melanoma cells after 72 hrs; settings: Melanoma cell, read-out: ED50 (the source's name)
[6] = Cytotoxicity against human lung cancer cells after 72 hrs; settings: Cancer cell lines, read-out: ED50 (the source's name)
[7] = system: Bacillus subtilis; assay: Antimicrobial activity against Bacillus subtilis ATCC 6633 after 24 hrs by twofold serial dilution method; settings: ATCC 6633, 24 h
[8] = system: Pseudomonas aeruginosa; assay: Antimicrobial activity against Pseudomonas aeruginosa after 48 hrs by twofold serial dilution method
[9] = Cytotoxicity against human breast cancer cells after 72 hrs; settings: Cancer cell lines, read-out: ED50 (the source's name)
[10] = system: Escherichia coli; assay: Antimicrobial activity against Escherichia coli after 48 hrs by twofold serial dilution method
[11] = system: Staphylococcus aureus; assay: Antimicrobial activity against Staphylococcus aureus ATCC 6538 after 24 hrs by twofold serial dilution method; settings: ATCC 6538, 24 h

| Compound | MIC [1] [µg/mL] | EC50 [2] [µg/mL] | EC50 [3] [µg/mL] | EC50 [4] [µg/mL] | EC50 [5] [µg/mL] | EC50 [6] [µg/mL] | MIC [7] [µg/mL] | MIC [8] [µg/mL] | EC50 [9] [µg/mL] | MIC [10] [µg/mL] | MIC [11] [µg/mL] |
| --- | --- | --- | --- | --- | --- | --- | --- | --- | --- | --- | --- |
| CCC(=O)C1=C(O)C(C)(C)C(O)=C(CC2=C(O)C(C)(C)C(O)=C(C(=O)CC)C2=O)C1=O | 50 (≈ 116 µM) | > 50 | > 50 | > 50 | > 50 | > 50 | 12.5 (≈ 28.9 µM) | > 100 | > 50 | > 100 | 50 (≈ 116 µM) |
| CC(=O)C1=C(O)C(C)(C)C(O)=C(CC2=C(O)C(C)(C)C(O)=C(C(C)=O)C2=O)C1=O | 100 (≈ 247 µM) | > 50 | > 50 | > 50 | > 50 | > 50 | 50 (≈ 124 µM) | > 100 | > 50 | > 100 | 100 (≈ 247 µM) |
| CCC(=O)C1=C(O)C(C)(C)C(O)=C(Cc2c(O)c3c(c(C(=O)CC)c2O)OC(C)(C)C=C3)C1=O [DRUMMONDIN A] | 1.56 (≈ 3.32 µM) | 4.5 (≈ 9.56 µM) | 6.6 (≈ 14 µM) | 2.1 (≈ 4.46 µM) | 8 (≈ 17 µM) | 4.5 (≈ 9.56 µM) | 0.78 (≈ 1.66 µM) | > 100 | 3.4 (≈ 7.23 µM) | > 100 | 1.56 (≈ 3.32 µM) |
| CCC(=O)C1=C(O)C(C)(C)C(O)=C(Cc2c(O)c3c(c(C(C)=O)c2O)OC(C)(C)C=C3)C1=O [DRUMMONDIN B] | 1.56 (≈ 3.42 µM) | 3.1 (≈ 6.79 µM) | 6.3 (≈ 13.8 µM) | 1.9 (≈ 4.16 µM) | 5 (≈ 11 µM) | 7 (≈ 15.3 µM) | 0.39 (≈ 0.854 µM) | > 100 | – | > 100 | 3.12 (≈ 6.83 µM) |
| CC(=O)C1=C(O)C(C)(C)C(O)=C(Cc2c(O)c3c(c(C(C)=O)c2O)OC(C)(C)C=C3)C1=O [DRUMMONDIN C] | 6.25 (≈ 14.1 µM) | 8.6 (≈ 19.4 µM) | 11 (≈ 24.9 µM) | 2.8 (≈ 6.33 µM) | 12 (≈ 27.1 µM) | 8.7 (≈ 19.7 µM) | 0.78 (≈ 1.76 µM) | > 100 | 5.1 (≈ 11.5 µM) | > 100 | 3.12 (≈ 7.05 µM) |
| CC(=O)C1=C(O)C(C)(CC=C(C)C)C(O)=C(Cc2c(O)c(CC=C(C)C)c(O)c(C(C)=O)c2O)C1=O (stereo not drawn) [DRUMMONDIN F] | 1.56 (≈ 3.13 µM) | 18 (≈ 36.1 µM) | 42 (≈ 84.2 µM) | 21 (≈ 42.1 µM) | > 50 | 30 (≈ 60.2 µM) | 0.78 (≈ 1.56 µM) | > 100 | 21 (≈ 42.1 µM) | > 100 | 0.78 (≈ 1.56 µM) |
| CN[C@@H]1[C@H](O[C@H]2[C@H](O[C@H]3[C@H](O)[C@@H](O)[C@H](N=C(N)N)[C@@H](O)[C@@H]3N=C(N)N)O[C@@H](C)[C@]2(O)C=O)O[C@@H](CO)[C@H](O)[C@H]1O [STREPTOMYCIN] | 3.12 (≈ 5.36 µM) | – | – | – | – | – | 0.78 (≈ 1.34 µM) | – | – | – | 6.25 (≈ 10.7 µM) |
